From patent publication US9024012B2, “Methods to treat mixtures of glycosides to obtain one or more of these glycosides in more pure form” (Cargill, Incorporated, priority 2010, dated 2015)

How the values were obtained:
[1] = relative to sucrose; background statement; cited from earlier work
[2] = assay type: physicochemical
Experimental: Without wishing to be bound, it is believed that separation is more favored at higher temperatures at least in part due to factors including conformational changes as well as solubility differences that are a function of temperature. At room temperature, the solubility of Reb B in a 94 weight percent ethanol solution saturated with Reb A is about 0.3 g per 100 g of solvent, and the solubility of Reb D is about 0.01 g per 100 g. At 100° C., concentrations of Reb D as high as 0.2 g/100 g are observed, and concentrations of Reb B as high as 0.5 g/100 g are observed. The solubility of Reb A in 94 wt % ethanol varies to a much smaller extent.

Row | Molecule | sweetness, times the sweetness of sucrose [1] | concentrations observed in solution [2] | solubility [2]
1 | C=C1C[C@@]23CC[C@H]4[C@@](C)(CCC[C@@]4(C)C(=O)O[C@@H]4O[C@H](CO)[C@@H](O)[C@H](O)[C@H]4O)[C@@H]2CC[C@]1(O[C@@H]1O[C@H](CO)[C@@H](O)[C@H](O[C@@H]2O[C@H](CO)[C@@H](O)[C@H](O)[C@H]2O)[C@H]1O[C@@H]1O[C@H](CO)[C@@H](O)[C@H](O)[C@H]1O)C3 [Rebaudioside A, rebaudioside A] | 250-450 times |  | 
2 | rebaudioside B [Reb B] |  | ≤ 0.5 g/100 g | about 0.3 g per 100 g of solvent
3 | C=C1C[C@@]23CC[C@H]4[C@@](C)(CCC[C@@]4(C)C(=O)O[C@@H]4O[C@H](CO)[C@@H](O)[C@H](O)[C@H]4O[C@@H]4O[C@H](CO)[C@@H](O)[C@H](O)[C@H]4O)[C@@H]2CC[C@]1(O[C@@H]1O[C@H](CO)[C@@H](O)[C@H](O[C@@H]2O[C@H](CO)[C@@H](O)[C@H](O)[C@H]2O)[C@H]1O[C@@H]1O[C@H](CO)[C@@H](O)[C@H](O)[C@H]1O)C3 [Reb D, rebaudioside D] |  | ≤ 0.2 g/100 g | about 0.01 g per 100 g of solvent
